The subject of one data set is U251 and PD-GB4 GB cells. The data set can be described thus: In vitro cytotoxicity of SELPi (annexin-FITC/PI apoptosis-necrosis staining). It is filed as cell-based, human. Here is the method:
Flow cytometry. For flow cytometry assays, cells were harvested using a cell scraper, and were then washed with PBS followed by additional washes with PBS supplemented with 1% BSA and 5 mM EDTA (FACS buffer). Tumor spheroids were recovered from Matrigel using Cell Recovery Solution (Corning) and washed with FACS buffer. To validate the purity of the microglia preparations, CD11b isolated cells or human microglia were incubated with TMEM119 and P2Y12-labeled antibodies for 1 h. For human TMEM119, primary antibody was unlabeled and cells were washed and incubated with secondary, Alexa 488 conjugated antibody. To assess P-Selectin and PSGL-1 expression, GB cells and microglia were seeded alone, co-cultured in a 2D petri dish, or grown as spheroids seeded in Matrigel. Cells were treated with control medium or CM for 48 h. They were then incubated with mouse anti-human P-Selectin antibody for 1 h on ice, and then were washed, and incubated with Alexa-488 labeled anti-mouse IgG binding protein for 1 h on ice. Alternatively, cells were incubated with rat anti-human PSGL antibody, and then were washed, and incubated with goat anti-rat, Alexa-488 labeled antibody for 1 h on ice. […] Fluorescence intensity was assessed using either an Attune flow cytometer (Life Technologies) or a Gallios™ flow cytometer (Beckman Coulter, USA) and the results were analyzed by Kaluza software (Beckman Coulter, USA).

The target in a further data set is T1, P-Selectin (Homo sapiens, UniProt P16109).
T1 sequence (P16109 42-830): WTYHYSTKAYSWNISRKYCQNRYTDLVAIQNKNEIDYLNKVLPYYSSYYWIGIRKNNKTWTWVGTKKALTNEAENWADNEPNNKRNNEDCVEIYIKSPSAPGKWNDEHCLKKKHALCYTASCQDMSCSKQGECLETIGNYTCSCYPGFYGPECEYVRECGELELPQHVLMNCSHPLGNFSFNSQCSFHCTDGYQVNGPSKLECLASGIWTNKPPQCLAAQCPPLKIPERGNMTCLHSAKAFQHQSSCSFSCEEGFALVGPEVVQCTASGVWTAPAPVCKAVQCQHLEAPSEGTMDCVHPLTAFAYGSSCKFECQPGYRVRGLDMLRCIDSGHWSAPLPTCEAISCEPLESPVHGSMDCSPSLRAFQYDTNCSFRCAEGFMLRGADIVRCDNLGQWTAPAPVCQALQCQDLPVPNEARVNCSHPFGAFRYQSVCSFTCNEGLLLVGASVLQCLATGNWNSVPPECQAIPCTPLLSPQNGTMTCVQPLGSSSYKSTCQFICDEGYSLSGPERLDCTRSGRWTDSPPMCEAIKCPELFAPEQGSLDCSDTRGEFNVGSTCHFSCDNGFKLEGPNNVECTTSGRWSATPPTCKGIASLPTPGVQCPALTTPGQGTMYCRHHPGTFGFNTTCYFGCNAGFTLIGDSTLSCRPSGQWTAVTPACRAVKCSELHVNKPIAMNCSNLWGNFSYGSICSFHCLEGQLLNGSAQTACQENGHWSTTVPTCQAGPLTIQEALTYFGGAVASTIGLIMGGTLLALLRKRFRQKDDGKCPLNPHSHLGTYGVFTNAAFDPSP
The following applies: cited from earlier work.

Data set [1] has as its system murine GB cells (GL261, iAGR53, PNp53, EGFRviii-shP16). Description: 3D spheroid invasion in Matrigel, murine GB cells co-cultured with murine microglia. It is filed as cell-based. Here is the method:
Tumor spheroids. Tumor spheroids were prepared from mCherry/iRFP/GFP-labeled patient-derived, human U251 or murine GB cells (GL261, iAGR53, PNp53, EGFRviii-shP16), either alone or co-cultured with unlabeled primary human/murine microglia (4:1 ratio), using our modified hanging-drop method, as we previously described. For assessment of cell invasion, GB spheroids (4,000 cells/sphere) were embedded in Matrigel (Corning), seeded in a 96-well plate, and incubated with complete DMEM or complete DMEM supplemented with SELPi (0.5 µM). […] For FACS analysis, GB spheroids (8,000 cells/sphere) were embedded in Matrigel, seeded in a 12-well plate, and treated with complete DMEM, 0% serum microglia medium or microglia CM for 24-48 h. Cells were then recovered using Cell Recovery Solution (Corning) and further analyzed by FACS.

`COc1ccc(C2CC(c3c(O)cc(C)oc3=O)=NCCS2)c(OC)c1` (stereo not drawn) [SELPi, 3-[7-(2,4-Dimethoxyphenyl)-2,3,6,7-tetrahydro-1,4-thiazepin-5-yl]-4-hydroxy-6-methyl-2H-pyran-2-one]: the toxicity result with U251 and PD-GB4 GB cells (0.5 µM SELPi (working concentration)) is listed as “no toxicity was observed”. The “percentage of apoptotic cells” value in the data set on U251 and PD-GB4 GB cells (5 and 10 µM SELPi, 72 h) was “slight increase in the percentage of apoptotic cells”. At P-Selectin (P-Selectin inhibition), the IC50 is 1970 nM. The “blocking of SELP-binding” value on P-Selectin (in vitro and in vivo) was “block SELP-binding”. Also, the “invasion of GB spheroids co-cultured with murine microglia” value in data set [1] (mesenchymal, proneural and classical lenti-induced murine GB subtypes) is “significantly reduced the invasion”. Further, in data set [1] (murine GL261 GB model), the “3D spheroid invasion, murine GL261” value is recorded as “effect of SELPi on GB spheroids was observed”.

The record behind these values is patent publication US20230303712A1, “METHODS OF TREATING GLIOBLASTOMA” (Ramot at Tel-Aviv University Ltd., priority 2020, published 2023).
